Numbered stars: 1 amine (or outer) side, 2 acyl side, 3 side chain; on linkers, the order of the positions; unused ones are H or OH. Square brackets hold non-standard residues; d marks the D form. Side chains are listed from the residue outwards. Peptide text beside a SMILES is read from it. * marks the point of attachment. Dap(Nα-HOOC(CH2)16CO)OH = O=C(O)CCCCCCCCCCCCCCCCC(=O)N[C@@H](CN*)C(=O)O; Bip = N[C@@H](Cc1ccc(-c2ccccc2)cc1)C(=O)O; C18 diacid = O=C(O)CCCCCCCCCCCCCCCCC(=O)*; X2 = O=C(CCc1ccc(I)cc1)N[C@@H](CN*)C(=O)O; αMePhe(2-F) = C[C@](N)(Cc1ccccc1F)C(=O)O; γGlu = O=C(O)[C@H](CCC(=O)[*:2])N[*:1]; hPhe = N[C@@H](CCc1ccccc1)C(=O)O; αMeP = C[C@@]1(C(=O)O)CCCN1; AEEA = NCCOCCOCC(=O)O; Aib = CC(C)(N)C(=O)O
Target: T1, hGLP1 receptor (Homo sapiens, UniProt P43220)
T1 construct: expressed in transfected cells; host or cells: HEK (human embryonic kidney) cells co-expressing hGLP1 receptor and CRE-Luciferase
T1 sequence (P43220 24-463): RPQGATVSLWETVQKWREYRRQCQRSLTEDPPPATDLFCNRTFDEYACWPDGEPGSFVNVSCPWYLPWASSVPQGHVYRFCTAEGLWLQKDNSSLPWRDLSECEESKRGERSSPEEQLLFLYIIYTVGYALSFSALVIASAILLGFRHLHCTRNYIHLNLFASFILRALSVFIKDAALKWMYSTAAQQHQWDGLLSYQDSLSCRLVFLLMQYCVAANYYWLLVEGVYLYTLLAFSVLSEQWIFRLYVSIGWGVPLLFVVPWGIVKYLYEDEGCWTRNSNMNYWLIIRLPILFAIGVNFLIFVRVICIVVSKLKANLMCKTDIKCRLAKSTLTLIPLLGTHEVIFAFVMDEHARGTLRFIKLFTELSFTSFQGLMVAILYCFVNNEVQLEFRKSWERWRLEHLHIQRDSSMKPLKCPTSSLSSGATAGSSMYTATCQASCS
Experiment: cAMP HTRF agonist assay in HEK cells co-expressing hGLP1 receptor and CRE-Luciferase
Assay type: cell-based
Conditions: cAMP EC50, nM (0.1% albumin), Table 6; 0.1% albumin
Procedure, shortened: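 HEK cells co-expressing hGLP1R and CRE-luciferase, 1000 cells/well in DPBS with 500 μM IBMX, exposed to peptides or exendin-4 reference for 30 min; 11-point 1:3 series from top 1.0 μM. cAMP measured by HTRF (665/615 nm) after 1 h at room temperature; EC50 from 4-parameter logistic fit.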

Compound | EC50
C[C@@H](O)[C@H](NC(=O)CNC(=O)[C@H](CCC(=O)O)NC(=O)C(C)(C)NC(=O)[C@@H](N)Cc1c[nH]cn1)C(=O)N[C@@](C)(Cc1ccccc1F)C(=O)N[C@H](C(=O)N[C@@H](CO)C(=O)N[C@@H](CC(=O)O)C(=O)N[C@@H](Cc1ccc(-c2ccccc2)cc1)C(=O)N[C@@H](Cc1ccc(-c2ccccc2)cc1)C(=O)NCCOCCOCC(=O)NCCOCCOCC(=O)NCCOCCOCC(=O)N[C@@H](CCCCN)C(N)=O)[C@@H](C)O [4-31, H2N-His-Aib-Glu-Gly-Thr-α-MePhe(2F)-Thr-Ser-Asp-Bip-Bip-C(O)(AEEA)3-Lys-NH2] (H-H[Aib]EGT[αMePhe(2-F)]TSD[Bip][Bip][AEEA][AEEA][AEEA]K-NH2) | 31.2 nM
C[C@@H](O)[C@H](NC(=O)CNC(=O)[C@H](CCC(=O)O)NC(=O)C(C)(C)NC(=O)[C@@H](N)Cc1c[nH]cn1)C(=O)N[C@@](C)(Cc1ccccc1F)C(=O)N[C@H](C(=O)N[C@@H](CO)C(=O)N[C@@H](CC(=O)O)C(=O)N[C@@H](Cc1ccc(-c2ccccc2)cc1)C(=O)N[C@@H](Cc1ccc(-c2ccccc2)cc1)C(=O)NC(C)(C)C(=O)NCC(=O)NCC(=O)N[C@@H](CCCCN)C(N)=O)[C@@H](C)O [4-33, H2N-His-Aib-Glu-Gly-Thr-α-MePhe(2F)-Thr-Ser-Asp-Bip-Bip-Aib-(Gly)2-Lys-NH2] (H-H[Aib]EGT[αMePhe(2-F)]TSD[Bip][Bip][Aib]GGK-NH2) | 33.7 nM
C[C@@H](O)[C@H](NC(=O)CNC(=O)[C@H](CCC(=O)O)NC(=O)C(C)(C)NC(=O)[C@@H](N)Cc1c[nH]cn1)C(=O)N[C@@](C)(Cc1ccccc1F)C(=O)N[C@H](C(=O)N[C@@H](CO)C(=O)N[C@@H](CC(=O)O)C(=O)N[C@@H](Cc1ccc(-c2ccccc2)cc1)C(=O)N[C@@H](CCc1ccccc1)C(=O)NCCOCCOCC(=O)NCCOCCOCC(N)=O)[C@@H](C)O [4-35, H2N-His-Aib-Glu-Gly-Thr-α-MePhe(2-F)-Thr-Ser-Asp-Bip-Hph-C(O)NH-RY1] (H-H[Aib]EGT[αMePhe(2-F)]TSD[Bip][hPhe][AEEA][AEEA]-NH2) | 67.2 nM
C[C@@H](O)[C@H](NC(=O)CNC(=O)[C@H](CCC(=O)O)NC(=O)C(C)(C)NC(=O)[C@@H](N)Cc1c[nH]cn1)C(=O)N[C@@](C)(Cc1ccccc1F)C(=O)N[C@H](C(=O)N[C@@H](CO)C(=O)N[C@@H](CC(=O)O)C(=O)N[C@@H](Cc1ccc(-c2ccccc2)cc1)C(=O)N[C@@H](CCc1ccccc1)C(=O)NCCOCCOCC(=O)NCCOCCOCC(=O)NC[C@H](NC(=O)CCCCCCCCCCCCCCCCC(=O)O)C(=O)O)[C@@H](C)O [4-36, H2N-His-Aib-Glu-Gly-Thr-α-MePhe(2-F)-Thr-Ser-Asp-Bip-Hph-C(O)NH-RY2] (H-H[Aib]EGT[αMePhe(2-F)]TSD[Bip][hPhe][AEEA][AEEA]-{Dap(Nα-HOOC(CH2)16CO)OH}) | 70.9 nM
C[C@@H](O)[C@H](NC(=O)CNC(=O)[C@H](CCC(=O)O)NC(=O)C(C)(C)NC(=O)[C@@H](N)Cc1c[nH]cn1)C(=O)N[C@@](C)(Cc1ccccc1F)C(=O)N[C@H](C(=O)N[C@@H](CO)C(=O)N[C@@H](CC(=O)O)C(=O)N[C@@H](Cc1ccc(-c2ccccc2)cc1)C(=O)N[C@@H](Cc1ccc(-c2ccccc2)cc1)C(=O)N[C@@H](CCCCNC(=O)COCCOCCNC(=O)CC[C@H](NC(=O)CCCCCCCCCCCCCCCCC(=O)O)C(=O)O)C(N)=O)[C@@H](C)O [4-48, H2N-His-Aib-Glu-Gly-Thr-α-MePhe(2-F)-Thr-Ser-Asp-Bip-Bip-C(0)NH-RY10] (H-H[Aib]EGT[αMePhe(2-F)]TSD[Bip][Bip]K([AEEA-γGlu-C18 diacid])-NH2) | 9.7 nM
C[C@@H](O)[C@H](NC(=O)CNC(=O)[C@H](CCC(=O)O)NC(=O)C(C)(C)NC(=O)[C@@H](N)Cc1c[nH]cn1)C(=O)N[C@@](C)(Cc1ccccc1F)C(=O)N[C@H](C(=O)N[C@@H](CO)C(=O)N[C@@H](CC(=O)O)C(=O)N[C@@H](Cc1ccc(-c2ccccc2)cc1)C(=O)N[C@@H](Cc1ccc(-c2ccccc2)cc1)C(=O)N[C@@H](CCCCNC(=O)COCCOCCNC(=O)COCCOCCNC(=O)CC[C@H](NC(=O)CCCCCCCCCCCCCCCCC(=O)O)C(=O)O)C(N)=O)[C@@H](C)O [4-49, H2N-His-Aib-Glu-Gly-Thr-α-MePhe(2-F)-Thr-Ser-Asp-Bip-Bip-C(O)NH-RY11] (H-H[Aib]EGT[αMePhe(2-F)]TSD[Bip][Bip]K([AEEA-AEEA-γGlu-C18 diacid])-NH2) | 5 nM
C[C@@H](O)[C@H](NC(=O)CNC(=O)[C@H](CCC(=O)O)NC(=O)C(C)(C)NC(=O)[C@@H](N)Cc1c[nH]cn1)C(=O)N[C@@](C)(Cc1ccccc1F)C(=O)N[C@H](C(=O)N[C@@H](CO)C(=O)N[C@@H](CC(=O)O)C(=O)N[C@@H](Cc1ccc(-c2ccccc2)cc1)C(=O)N[C@@H](Cc1ccc(-c2ccccc2)cc1)C(=O)N[C@@H](CCCCNC(=O)COCCOCCNC(=O)COCCOCCNC(=O)COCCOCCNC(=O)CC[C@H](NC(=O)CCCCCCCCCCCCCCCCC(=O)O)C(=O)O)C(N)=O)[C@@H](C)O [4-50, H2N-His-Aib-Glu-Gly-Thr-α-MePhe(2-F)-Thr-Ser-Asp-Bip-Bip-C(O)NH-RY12] (H-H[Aib]EGT[αMePhe(2-F)]TSD[Bip][Bip]K([AEEA-AEEA-AEEA-γGlu-C18 diacid])-NH2) | 12 nM
C[C@@H](O)[C@H](NC(=O)CNC(=O)[C@H](CCC(=O)O)NC(=O)C(C)(C)NC(=O)[C@@H](N)Cc1c[nH]cn1)C(=O)N[C@@](C)(Cc1ccccc1F)C(=O)N[C@H](C(=O)N[C@@H](CO)C(=O)N[C@@H](CC(=O)O)C(=O)N[C@@H](Cc1ccc(-c2ccccc2)cc1)C(=O)N[C@@H](Cc1ccc(-c2ccccc2)cc1)C(=O)NCCOCCOCC(=O)NCCOCCOCC(=O)NCCOCCOCC(=O)N[C@@H](CCCCN)C(N)=O)[C@@H](C)O [4-57, H2N-His-Aib-Glu-Gly-Thr-α-MePhe(2-F)-Thr-Ser-Asp-Bip-Bip-C(O)NH-RY13] (H-H[Aib]EGT[αMePhe(2-F)]TSD[Bip][Bip][AEEA][AEEA][AEEA]K-NH2) | 14 nM
C[C@@H](O)[C@H](NC(=O)CNC(=O)[C@H](CCC(=O)O)NC(=O)C(C)(C)NC(=O)[C@@H](N)Cc1c[nH]cn1)C(=O)N[C@@](C)(Cc1ccccc1F)C(=O)N[C@H](C(=O)N[C@@H](CO)C(=O)N[C@@H](CC(=O)O)C(=O)N[C@@H](Cc1ccc(-c2ccccc2)cc1)C(=O)N[C@@H](Cc1ccc(-c2ccccc2)cc1)C(=O)NCC(=O)NCC(=O)NCC(=O)N[C@@H](CCCCN)C(N)=O)[C@@H](C)O [4-58, H2N-His-Aib-Glu-Gly-Thr-α-MePhe(2-F)-Thr-Ser-Asp-Bip-Bip-C(O)NH-RY14] (H-H[Aib]EGT[αMePhe(2-F)]TSD[Bip][Bip]GGGK-NH2) | 7.7 nM
C[C@@H](O)[C@H](NC(=O)CNC(=O)[C@H](CCC(=O)O)NC(=O)[C@]1(C)CCCN1C(=O)[C@@H](N)Cc1c[nH]cn1)C(=O)N[C@@](C)(Cc1ccccc1F)C(=O)N[C@H](C(=O)N[C@@H](CO)C(=O)N[C@@H](CC(=O)O)C(=O)N[C@@H](Cc1ccc(-c2ccccc2)cc1)C(=O)N[C@@H](Cc1ccc(-c2ccccc2)cc1)C(=O)NCCOCCOCC(=O)NCCOCCOCC(=O)NCCOCCOCC(=O)NC[C@H](NC(=O)CCc1ccc(I)cc1)C(=O)O)[C@@H](C)O [4-59, H2N-His-α-MePro -Glu-Gly-Thr-α-MePhe(2-F)-Thr-Ser-Asp-Bip-Bip-C(O)NH-RY15] (H-H[αMeP]EGT[αMePhe(2-F)]TSD[Bip][Bip][AEEA][AEEA][AEEA]-X2) | 1.3 nM
C[C@@H](O)[C@H](NC(=O)CNC(=O)[C@H](CCC(=O)O)NC(=O)[C@]1(C)CCCN1C(=O)[C@@H](N)Cc1c[nH]cn1)C(=O)N[C@@](C)(Cc1ccccc1F)C(=O)N[C@H](C(=O)N[C@@H](CO)C(=O)N[C@@H](CC(=O)O)C(=O)N[C@@H](Cc1ccc(-c2ccccc2)cc1)C(=O)N[C@@H](Cc1ccc(-c2ccccc2)cc1)C(=O)NCCOCCOCC(=O)NCCOCCOCC(=O)NC[C@H](NC(=O)CCCCCCCCCCCCCCCCC(=O)O)C(=O)O)[C@@H](C)O [4-60, H2N-His-α-MePro-Glu-Gly-Thr-α-MePhe(2-F)-Thr-Ser-Asp-Bip-Bip-C(O)NH-RY16] (H-H[αMeP]EGT[αMePhe(2-F)]TSD[Bip][Bip][AEEA][AEEA]-{Dap(Nα-HOOC(CH2)16CO)OH}) | 2.2 nM
C[C@@H](O)[C@H](NC(=O)CNC(=O)[C@H](CCC(=O)O)NC(=O)[C@]1(C)CCCN1C(=O)[C@@H](N)Cc1c[nH]cn1)C(=O)N[C@@](C)(Cc1ccccc1F)C(=O)N[C@H](C(=O)N[C@@H](CO)C(=O)N[C@@H](CC(=O)O)C(=O)N[C@@H](Cc1ccc(-c2ccccc2)cc1)C(=O)N[C@@H](Cc1ccc(-c2ccccc2)cc1)C(=O)N[C@@H](CCCCNC(=O)COCCOCCNC(=O)COCCOCCNC(=O)CC[C@H](NC(=O)CCCCCCCCCCCCCCCCC(=O)O)C(=O)O)C(N)=O)[C@@H](C)O [4-61, H2N-His-α-MePro-Glu-Gly-Thr-α-MePhe(2-F)-Thr-Ser-Asp-Bip-Bip-C(O)NH-RY17] (H-H[αMeP]EGT[αMePhe(2-F)]TSD[Bip][Bip]K([AEEA-AEEA-γGlu-C18 diacid])-NH2) | 272 nM

Same assay, conditions: relative to parent 1-4

Compound | fold lower potency than the parent peptide (1-4)
C[C@@H](O)[C@H](NC(=O)CNC(=O)[C@H](CCC(=O)O)NC(=O)C(C)(C)NC(=O)[C@@H](N)Cc1c[nH]cn1)C(=O)N[C@@](C)(Cc1ccccc1F)C(=O)N[C@H](C(=O)N[C@@H](CO)C(=O)N[C@@H](CC(=O)O)C(=O)N[C@@H](Cc1ccc(-c2ccccc2)cc1)C(=O)N[C@@H](CCc1ccccc1)C(=O)NCCOCCOCC(=O)NCCOCCOCC(=O)NC[C@H](NC(=O)CCCCCCCCCCCCCCCCC(=O)O)C(=O)O)[C@@H](C)O [4-36, H2N-His-Aib-Glu-Gly-Thr-α-MePhe(2-F)-Thr-Ser-Asp-Bip-Hph-C(O)NH-RY2] (H-H[Aib]EGT[αMePhe(2-F)]TSD[Bip][hPhe][AEEA][AEEA]-{Dap(Nα-HOOC(CH2)16CO)OH}) | 15 fold
C[C@@H](O)[C@H](NC(=O)CNC(=O)[C@H](CCC(=O)O)NC(=O)C(C)(C)NC(=O)[C@@H](N)Cc1c[nH]cn1)C(=O)N[C@@](C)(Cc1ccccc1F)C(=O)N[C@H](C(=O)N[C@@H](CO)C(=O)N[C@@H](CC(=O)O)C(=O)N[C@@H](Cc1ccc(-c2ccccc2)cc1)C(=O)N[C@@H](CCc1ccccc1)C(=O)NCCOCCOCC(=O)NCCOCCOCC(=O)NCCOCCOCC(=O)NC[C@H](NC(=O)CCc1ccc(I)cc1)C(=O)O)[C@@H](C)O [4-37, H2N-His-Aib-Glu-Gly-Thr-α-MePhe(2-F)-Thr-Ser-Asp-Bip-Hph-C(O)NH-RY3] (H-H[Aib]EGT[αMePhe(2-F)]TSD[Bip][hPhe][AEEA][AEEA][AEEA]-X2) | equipotency

From US20230015478A1, “GLP-1 RECEPTOR AGONISTS HAVING IMPROVED PHARMACOLOGICAL AND DRUG DELIVERY PROPERTIES” (priority 2021, published 2023)
